These results are taken from patent US20240067693A1, “POLYPEPTIDES AND USES THEREOF” (MEDIMMUNE LIMITED, priority 2020, published 2024).

One data set can be described thus: in vivo. The note with it: male, Sprague-Dawley, rat, 20 nmol/kg.
Data set [1] concerns the target T1, human amylin receptor (calcitonin receptor co-expressed with receptor activity modifying protein, RAMP3) (hAMYR3) (Homo sapiens, UniProt O60896+P30988).
T1 construct: expressed in transfected cells
T1 sequence (P30988 25-474): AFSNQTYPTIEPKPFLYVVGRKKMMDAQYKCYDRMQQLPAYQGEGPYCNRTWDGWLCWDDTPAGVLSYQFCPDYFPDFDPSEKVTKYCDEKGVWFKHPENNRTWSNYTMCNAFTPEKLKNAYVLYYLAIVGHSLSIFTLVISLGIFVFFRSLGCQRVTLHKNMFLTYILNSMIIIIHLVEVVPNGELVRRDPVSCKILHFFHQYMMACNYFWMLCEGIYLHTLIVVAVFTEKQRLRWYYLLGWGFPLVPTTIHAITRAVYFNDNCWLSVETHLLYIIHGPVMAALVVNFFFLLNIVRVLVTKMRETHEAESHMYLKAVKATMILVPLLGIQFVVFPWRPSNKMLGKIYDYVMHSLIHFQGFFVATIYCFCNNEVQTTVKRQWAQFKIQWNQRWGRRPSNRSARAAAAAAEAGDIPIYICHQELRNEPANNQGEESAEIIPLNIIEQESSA
T1 sequence (O60896 24-148 partner): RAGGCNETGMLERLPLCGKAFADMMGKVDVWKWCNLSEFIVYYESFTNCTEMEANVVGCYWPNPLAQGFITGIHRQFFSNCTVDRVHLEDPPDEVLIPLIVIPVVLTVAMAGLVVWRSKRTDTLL
The experiment in a line: cAMP production in 1321N1 cells with stable recombinant expression of human amylin receptor (hAMYR3). It is filed as cell-based. The settings on record: for Ratio (selectivity hAMYR vs hCTR, ratio of EC50 values at the two receptors): EC50 hCTR / EC50 hAMYR3; for EC50: cAMP, 1321N1 cells, assay buffer with 0.1% BSA, read-out: EC50 (pM) hAMYR3. The method, boiled down: (§1)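 Thawed cells in HBSS/0.1% BSA/25 mM HEPES pH 7.4 with 0.5 mM IBMX were incubated with peptides 30 min at room temperature; cAMP read by HTRF. EC50 from 4-parameter fit of % activation relative to maximal amylin or calcitonin effect.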
A general note: cAMP levels reflect the balance of adenylyl cyclase and phosphodiesterase activity.

The target of data set [2] is T2, human calcitonin receptor (hCTR) (Homo sapiens, UniProt P30988).
T2 construct: expressed in transfected cells
T2 sequence (P30988 25-474): T1 sequence (P30988 25-474)
The experiment in a line: cAMP production in 1321N1 cells with stable recombinant expression of human calcitonin receptor (hCTR). It is filed as cell-based. The note with it: cAMP, 1321N1 cells, assay buffer with 0.1% BSA; read-out: EC50 (pM) hCTR. The method, boiled down:
as §1

A short description of data set [3]: Thioflavin T fibrillation assay. The settings on record: for fibril-forming tendency: ThT assay, 1 mg/mL, pH 4.0, 37 °C, compared to pramlintide; for Time taken to detect increase in fluorescence intensity: ThT fibrillation assay, peptide 1 mg/mL in 25 mM sodium acetate buffer pH 4.0, 6 days at 37 °C with shaking, >144 h = no increase. The class given is physicochemical. In a few lines: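 Peptides at 1 mg/mL in 25 mM sodium acetate pH 4.0 with ThT (from 0.25 mM stock), incubated 6 days at 37 °C with intermittent orbital shaking at 500–750 rpm. Fluorescence (ex 444/em 480 nm) read every 30 min; value is average time to a rise in baseline-corrected signal.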

Numbered stars: 1 amine (or outer) side, 2 acyl side, 3 side chain; on linkers, the order of the positions; unused ones are H or OH. Bridge positions count the residues as written; N and C are the ends. Square brackets hold non-standard residues; d marks the D form. Side chains are listed from the residue outwards. Peptide text beside a SMILES is read from it. * marks the point of attachment. C20 diacid = O=C(O)CCCCCCCCCCCCCCCCCCC(=O)*; C18 diacid = O=C(O)CCCCCCCCCCCCCCCCC(=O)*; γGlu = O=C(O)[C@H](CCC(=O)[*:2])N[*:1]; AEEA = NCCOCCOCC(=O)O; Aib = CC(C)(N)C(=O)O

The half-life is how long it takes for the measured level to halve. The low end stands for fast loss, the high end for slow loss. The term EC50 denotes the concentration giving half of the maximal effect. Take `CC[C@H](C)[C@H](NC(=O)[C@@H]1CCCN1C(=O)CNC(=O)[C@H](Cc1ccccc1)NC(=O)[C@H](CC(N)=O)NC(=O)[C@H](CC(N)=O)NC(=O)[C@H](CO)NC(=O)[C@H](CO)NC(=O)[C@H](Cc1c[nH]cn1)NC(=O)[C@@H](NC(=O)[C@H](CC(C)C)NC(=O)[C@H](Cc1ccccc1)NC(=O)[C@H](CC(N)=O)NC(=O)[C@H](C)NC(=O)[C@H](CC(C)C)NC(=O)[C@H](CCCNC(=N)N)NC(=O)[C@H](CCC(N)=O)NC(=O)[C@@H](NC(=O)[C@H](C)NC(=O)[C@@H]1CSSC[C@H](NC(=O)[C@H](CCCCN)NC(=O)CNC(=O)CNC(=O)CNC(=O)CC[C@H](NC(=O)CC[C@H](NC(=O)CCCCCCCCCCCCCCCCC(=O)O)C(=O)O)C(=O)O)C(=O)N[C@@H](CC(N)=O)C(=O)N[C@@H]([C@@H](C)O)C(=O)N[C@@H](C)C(=O)N[C@@H]([C@@H](C)O)C(=O)N1)[C@@H](C)O)C(C)C)C(=O)N[C@@H](CC(C)C)C(=O)N1CCC[C@H]1C(=O)N1CCC[C@H]1C(=O)N[C@H](C(=O)N[C@@H](CC(N)=O)C(=O)N[C@H](C(=O)NCC(=O)N[C@@H](CO)C(=O)N[C@@H](CC(N)=O)C(=O)N[C@H](C(=O)N[C@@H](Cc1ccc(O)cc1)C(N)=O)[C@@H](C)O)C(C)C)[C@@H](C)O` [Peptide 4] ({C18 diacid-γGlu-γGlu}-GGGKCNTATCATQRLANFLVHSSNNFGPILPPTNVGSNTY-NH2; disulfide 5-10): the half-life in the data set “in vivo” (iv) and in “in vivo” (sc) was 12 h each time. Besides, in data set [1], the “Ratio (selectivity hAMYR vs hCTR, ratio of EC50 values at the two receptors)” value is 30. Moreover, the results for the EC50 in data set [1] and in data set [2] were 248 pM and 7530 pM, respectively. Moreover, the fibril-forming tendency entry in data set [3] was “increases the fibril-forming tendency”. In data set [3], the “Time taken to detect increase in fluorescence intensity” value (shortened to “Time taken to detect increase”) is recorded as under 5 h.

As to `CC[C@H](C)[C@H](NC(=O)[C@@H]1CCCN1C(=O)CNC(=O)[C@H](Cc1ccccc1)NC(=O)[C@H](CC(N)=O)NC(=O)[C@H](CC(N)=O)NC(=O)[C@H](CO)NC(=O)[C@H](CO)NC(=O)[C@H](Cc1c[nH]cn1)NC(=O)[C@@H](NC(=O)[C@H](CC(C)C)NC(=O)[C@H](Cc1ccccc1)NC(=O)[C@H](CC(N)=O)NC(=O)[C@H](C)NC(=O)[C@H](CC(C)C)NC(=O)[C@H](CCCNC(=N)N)NC(=O)[C@H](CCC(N)=O)NC(=O)[C@@H](NC(=O)[C@H](C)NC(=O)[C@@H]1CSSC[C@H](NC(=O)[C@@H](N)CCCCNC(=O)CC[C@H](NC(=O)CC[C@H](NC(=O)CCCCCCCCCCCCCCCCC(=O)O)C(=O)O)C(=O)O)C(=O)N[C@@H](CC(N)=O)C(=O)N[C@@H]([C@@H](C)O)C(=O)N[C@@H](C)C(=O)N[C@@H]([C@@H](C)O)C(=O)N1)[C@@H](C)O)C(C)C)C(=O)N[C@@H](CC(C)C)C(=O)N1CCC[C@H]1C(=O)N1CCC[C@H]1C(=O)N[C@H](C(=O)N[C@@H](CC(N)=O)C(=O)N[C@H](C(=O)NCC(=O)N[C@@H](CO)C(=O)N[C@@H](CC(N)=O)C(=O)N[C@H](C(=O)N[C@@H](Cc1ccc(O)cc1)C(N)=O)[C@@H](C)O)C(C)C)[C@@H](C)O` [Peptide 5] (H-K([γGlu-γGlu-C18 diacid])CNTATCATQRLANFLVHSSNNFGPILPPTNVGSNTY-NH2; disulfide 2-7; N-terminus assumed), the half-life in “in vivo” (iv) is 10.5 h. This compound also showed a half-life in “in vivo” (sc) of 9.4 h. Besides, in data set [1], the “Ratio (selectivity hAMYR vs hCTR, ratio of EC50 values at the two receptors)” value is 21 and the EC50 was 174 pM. Besides, in data set [2], the EC50 turned out to be 3600 pM. Further, in data set [3], the fibril-forming tendency entry is on record as “increases the fibril-forming tendency” and the “Time taken to detect increase” value worked out at 7 h.

`CC[C@H](C)[C@H](NC(=O)[C@@H]1CCCN1C(=O)CNC(=O)[C@H](Cc1ccccc1)NC(=O)[C@H](CC(N)=O)NC(=O)[C@H](CC(N)=O)NC(=O)[C@H](CO)NC(=O)[C@H](CO)NC(=O)[C@H](Cc1c[nH]cn1)NC(=O)[C@@H](NC(=O)[C@H](CC(C)C)NC(=O)[C@H](Cc1ccccc1)NC(=O)[C@H](CC(N)=O)NC(=O)[C@H](C)NC(=O)[C@H](CC(C)C)NC(=O)[C@H](CCCNC(=N)N)NC(=O)[C@H](CCC(N)=O)NC(=O)[C@@H](NC(=O)[C@H](C)NC(=O)[C@@H]1CSSC[C@H](NC(=O)[C@@H](N)CCCCNC(=O)COCCOCCNC(=O)COCCOCCNC(=O)CC[C@H](NC(=O)CCCCCCCCCCCCCCCCC(=O)O)C(=O)O)C(=O)N[C@@H](CC(N)=O)C(=O)N[C@@H]([C@@H](C)O)C(=O)N[C@@H](C)C(=O)N[C@@H]([C@@H](C)O)C(=O)N1)[C@@H](C)O)C(C)C)C(=O)N[C@@H](CC(C)C)C(=O)N1CCC[C@H]1C(=O)N1CCC[C@H]1C(=O)N[C@H](C(=O)N[C@@H](CC(N)=O)C(=O)N[C@H](C(=O)NCC(=O)N[C@@H](CO)C(=O)N[C@@H](CC(N)=O)C(=O)N[C@H](C(=O)N[C@@H](Cc1ccc(O)cc1)C(N)=O)[C@@H](C)O)C(C)C)[C@@H](C)O` [Peptide 6] (H-K([AEEA-AEEA-γGlu-C18 diacid])CNTATCATQRLANFLVHSSNNFGPILPPTNVGSNTY-NH2; disulfide 2-7; N-terminus assumed) had a half-life in the data set “in vivo” (iv) of 9.5 h. In the data set “in vivo” (sc), this compound had a half-life of 17.6 h. Besides, in data set [1], the “Ratio (selectivity hAMYR vs hCTR, ratio of EC50 values at the two receptors)” value came to 5 and the EC50 is 68 pM. In addition, the EC50 in data set [2] came to 310 pM. In data set [3], the fibril-forming tendency entry is listed as “increases the fibril-forming tendency” and the “Time taken to detect increase” value came to 15 h.

Regarding `CC[C@H](C)[C@H](NC(=O)[C@H](C)NC(=O)[C@@H]1CCCN1C(=O)[C@H](Cc1ccccc1)NC(=O)[C@H](CC(N)=O)NC(=O)C(C)(C)NC(=O)[C@H](CO)NC(=O)[C@H](CO)NC(=O)[C@H](Cc1c[nH]cn1)NC(=O)[C@@H](NC(=O)[C@H](CC(C)C)NC(=O)[C@H](Cc1ccccc1)NC(=O)[C@H](CC(N)=O)NC(=O)[C@H](C)NC(=O)[C@H](CC(C)C)NC(=O)[C@H](CCCNC(=N)N)NC(=O)[C@H](CCC(N)=O)NC(=O)[C@@H](NC(=O)[C@H](C)NC(=O)[C@@H]1CSSC[C@H](NC(=O)[C@@H](N)CCCCNC(=O)CC[C@H](NC(=O)CC[C@H](NC(=O)CCCCCCCCCCCCCCCCCCC(=O)O)C(=O)O)C(=O)O)C(=O)N[C@@H](CC(N)=O)C(=O)N[C@@H]([C@@H](C)O)C(=O)N[C@@H](C)C(=O)N[C@@H]([C@@H](C)O)C(=O)N1)[C@@H](C)O)C(C)C)C(=O)N[C@@H](CC(C)C)C(=O)N[C@@H](CO)C(=O)N1CCC[C@H]1C(=O)N[C@H](C(=O)N[C@@H](CC(N)=O)C(=O)N[C@H](C(=O)NCC(=O)N[C@@H](CO)C(=O)N[C@@H](CC(N)=O)C(=O)N[C@H](C(=O)N[C@@H](Cc1ccc(O)cc1)C(N)=O)[C@@H](C)O)C(C)C)[C@@H](C)O` [Peptide 117, K(γE-γE-C20diacid)[CNTATC]ATQRLANFLVHSS(Aib)NFPAILSPTNVGSNTY-amide] (H-K([γGlu-γGlu-C20 diacid])CNTATCATQRLANFLVHSS[Aib]NFPAILSPTNVGSNTY-NH2; disulfide 2-7; N-terminus assumed), the half-life in “in vivo” (iv) was 9.8 h; in the data set “in vivo” (sc), 12.9 h. Also, the “Ratio (selectivity hAMYR vs hCTR, ratio of EC50 values at the two receptors)” value in data set [1] is 4. The half-maximal effective concentration (EC50) in data set [1] is 770 pM; in data set [2], 3190 pM.
